Laboratory results: paper PMC4868535, “A G-protein activation cascade from Arl13B to Arl3 and implications for ciliary targeting of lipidated proteins” (eLife, 2015)

Legend:
[1] = biological target: T1, CrArl13B-CrArl3 complex (CrArl3 nucleotide site) (Chlamydomonas reinhardtii, UniProt A8ISN6); test: X-ray crystal structure […] Å; format: binding; conditions: Mg2+; nucleotide site of CrArl3; post-nucleotide-exchange state
T1 construct: gene ARL3; crystal complex, one in asymmetric unit; last 58 residues of CrArl13B not visible; from E. coli; with ADP-ribosylation factor-like protein 13B
T1 sequence (A8ISN6 2-177 limits assumed): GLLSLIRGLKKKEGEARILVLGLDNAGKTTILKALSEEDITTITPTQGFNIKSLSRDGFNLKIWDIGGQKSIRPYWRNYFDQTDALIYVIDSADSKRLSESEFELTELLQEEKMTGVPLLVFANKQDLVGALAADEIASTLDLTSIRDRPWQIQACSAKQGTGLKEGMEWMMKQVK
T1 sequence (A8INQ0 18-278 partner): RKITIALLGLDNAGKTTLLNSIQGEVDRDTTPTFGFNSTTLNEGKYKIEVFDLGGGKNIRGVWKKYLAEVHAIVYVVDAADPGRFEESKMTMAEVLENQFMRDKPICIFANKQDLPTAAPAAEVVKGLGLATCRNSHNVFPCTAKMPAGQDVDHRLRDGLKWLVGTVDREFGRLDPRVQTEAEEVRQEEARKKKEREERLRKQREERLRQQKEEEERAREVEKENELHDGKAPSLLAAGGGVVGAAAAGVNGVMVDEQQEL

[2] = biological target: T2, CrArl13B-CrArl3 complex (CrArl13B nucleotide site) (Chlamydomonas reinhardtii, UniProt A8INQ0); test: X-ray crystal structure […] Å; format: binding; conditions: Mg2+; nucleotide site of CrArl13B
T2 construct: gene ARL13; crystal complex, one in asymmetric unit; last 58 residues of CrArl13B not visible; from E. coli; with ADP-ribosylation factor-like protein 3
T2 sequence (A8INQ0 18-278): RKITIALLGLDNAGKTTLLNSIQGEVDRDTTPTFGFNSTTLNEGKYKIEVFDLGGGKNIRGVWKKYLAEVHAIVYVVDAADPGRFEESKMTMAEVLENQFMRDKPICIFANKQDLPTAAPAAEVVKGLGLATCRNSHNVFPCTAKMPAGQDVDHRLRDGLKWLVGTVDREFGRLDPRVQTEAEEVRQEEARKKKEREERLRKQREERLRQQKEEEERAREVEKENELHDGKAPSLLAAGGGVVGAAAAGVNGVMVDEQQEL
T2 sequence (A8ISN6 2-177 partner): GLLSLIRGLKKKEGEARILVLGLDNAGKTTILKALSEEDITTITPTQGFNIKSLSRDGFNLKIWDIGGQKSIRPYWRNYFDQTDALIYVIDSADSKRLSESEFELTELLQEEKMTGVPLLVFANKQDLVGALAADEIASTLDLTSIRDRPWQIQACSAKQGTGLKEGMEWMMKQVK

[3] = biological target: T3, CrArl13B 18-278 (Chlamydomonas reinhardtii, UniProt A8INQ0); test: nucleotide loading (HPLC) and GEF activity of the loaded protein; format: binding; conditions: 5 mM MgCl2, pH 7.5, 20°C
T3 construct: gene ARL13; residues 18-278 (G-domain plus C-terminal helix), expressed in E. coli as GST fusion
T3 sequence (A8INQ0 18-278): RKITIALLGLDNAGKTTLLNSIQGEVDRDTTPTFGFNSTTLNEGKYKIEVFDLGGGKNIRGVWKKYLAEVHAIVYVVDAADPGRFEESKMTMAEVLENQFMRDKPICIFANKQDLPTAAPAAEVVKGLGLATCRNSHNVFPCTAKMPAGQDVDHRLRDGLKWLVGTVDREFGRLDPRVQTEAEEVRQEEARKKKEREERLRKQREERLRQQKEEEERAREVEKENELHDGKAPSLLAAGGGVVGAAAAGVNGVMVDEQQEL

[4] = biological target: CrArl3 (Chlamydomonas reinhardtii)

Molecule: Nc1nc2c(ncn2[C@@H]2O[C@H](COP(=O)(O)OP(=O)(O)NP(=O)(O)O)[C@@H](O)[C@H]2O)c(=O)[nH]1 [GppNHp]
- X-ray crystal structure 2.5 Å [1]: GppNHp was clearly visible in both active sites
- X-ray crystal structure 2.5 Å [2]: GppNHp was clearly visible in both active sites

Molecule: Nc1nc2c(ncn2[C@@H]2O[C@H](COP(=O)(O)OP(=O)(O)O)[C@@H](O)[C@H]2O)c(=O)[nH]1 [GDP]
- nucleotide loading (HPLC) and GEF activity of the loaded protein ([3]; GDP-bound state compared by GEF activity on CrArl3·mantGDP): CrArl13B preloaded with GDP, GTP, or GppNHp was used to analyze the exchange activity

Molecule: Nc1nc2c(ncn2[C@@H]2O[C@H](COP(=O)(O)OP(=O)(O)OP(=O)(O)O)[C@@H](O)[C@H]2O)c(=O)[nH]1 [GTP]
- nucleotide loading (HPLC) and GEF activity of the loaded protein ([3]; GTP-bound state compared by GEF activity on CrArl3·mantGDP): CrArl13B preloaded with GDP, GTP, or GppNHp was used to analyze the exchange activity

B1: CrArl13B △220 (18–219) (domain or fragment)
chain: RKITIALLGLDNAGKTTLLNSIQGEVDRDTTPTFGFNSTTLNEGKYKIEVFDLGGGKNIRGVWKKYLAEVHAIVYVVDAADPGRFEESKMTMAEVLENQFMRDKPICIFANKQDLPTAAPAAEVVKGLGLATCRNSHNVFPCTAKMPAGQDVDHRLRDGLKWLVGTVDREFGRLDPRVQTEAEEVRQEEARKKKEREERLRK
- Kobs of nucleotide release from CrArl3 wt with 5 µM CrArl13B △220 (GEF assay, deletion constructs) [4]: 0.0011 s⁻¹

B2: CrArl13B △203 (18–202) (domain or fragment)
chain: RKITIALLGLDNAGKTTLLNSIQGEVDRDTTPTFGFNSTTLNEGKYKIEVFDLGGGKNIRGVWKKYLAEVHAIVYVVDAADPGRFEESKMTMAEVLENQFMRDKPICIFANKQDLPTAAPAAEVVKGLGLATCRNSHNVFPCTAKMPAGQDVDHRLRDGLKWLVGTVDREFGRLDPRVQTEAEEV
- Kobs of nucleotide release from CrArl3 wt with 5 µM CrArl13B △203 (GEF assay, deletion constructs) [4]: 0.0001 s⁻¹

B3: CrArl13B △213 (18–212) (domain or fragment)
chain: RKITIALLGLDNAGKTTLLNSIQGEVDRDTTPTFGFNSTTLNEGKYKIEVFDLGGGKNIRGVWKKYLAEVHAIVYVVDAADPGRFEESKMTMAEVLENQFMRDKPICIFANKQDLPTAAPAAEVVKGLGLATCRNSHNVFPCTAKMPAGQDVDHRLRDGLKWLVGTVDREFGRLDPRVQTEAEEVRQEEARKKKE
- Kobs of nucleotide release from CrArl3 wt with 5 µM CrArl13B △213 (GEF assay, deletion constructs) [4]: 0.0001 s⁻¹

B4: CrArl13B △233 (18–232) (domain or fragment)
chain: RKITIALLGLDNAGKTTLLNSIQGEVDRDTTPTFGFNSTTLNEGKYKIEVFDLGGGKNIRGVWKKYLAEVHAIVYVVDAADPGRFEESKMTMAEVLENQFMRDKPICIFANKQDLPTAAPAAEVVKGLGLATCRNSHNVFPCTAKMPAGQDVDHRLRDGLKWLVGTVDREFGRLDPRVQTEAEEVRQEEARKKKEREERLRKQREERLRQQKEEE
- Kobs of nucleotide release from CrArl3 wt with 5 µM CrArl13B △233 (GEF assay, deletion constructs) [4]: 0.005 s⁻¹
